Data reported in article PMC4465922 (Nature chemical biology, 2015).

Target: T1, α2C-adrenergic receptor (α2C-AR) (Homo sapiens, UniProt P18825)
T1 sequence (P18825 1-462): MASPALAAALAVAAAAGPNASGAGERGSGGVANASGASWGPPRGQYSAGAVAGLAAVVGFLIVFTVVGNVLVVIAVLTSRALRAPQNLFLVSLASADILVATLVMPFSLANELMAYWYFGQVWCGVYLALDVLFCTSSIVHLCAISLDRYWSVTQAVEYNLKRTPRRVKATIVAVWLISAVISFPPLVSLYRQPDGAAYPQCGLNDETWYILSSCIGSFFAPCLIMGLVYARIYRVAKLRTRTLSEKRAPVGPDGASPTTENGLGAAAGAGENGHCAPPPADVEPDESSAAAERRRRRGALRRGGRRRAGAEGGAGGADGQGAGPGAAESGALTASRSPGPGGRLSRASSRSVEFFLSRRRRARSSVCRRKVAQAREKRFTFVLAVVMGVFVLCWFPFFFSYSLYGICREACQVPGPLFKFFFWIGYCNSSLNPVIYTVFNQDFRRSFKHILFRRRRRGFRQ
Assay: [3H]NE competition radioligand binding on HEK293T membranes
Type: cell-based

NC[C@H](O)c1ccc(O)c(O)c1 [NE, L-(–)-norepinephrine]
EC50: 1.2 ± 0.4 nM
